The results in this text go back to ChEMBL document CHEMBL5346941, “Design, synthesis and evaluation of novel monoamine oxidase B (MAO-B) inhibitors with improved pharmacokinetic properties for Parkinson's disease” (Eur J Med Chem, 2023).

Series [1] is described as follows: Elimination half life in fasted ICR mouse at 2 mg/kg, iv measured for 24 hrs. Type of series: ADME, organism-based. Conditions: in vivo, read-out: beta t1/2 (converted).
A short description of series [2]: AUC (0 to t) in fasted ICR mouse at 5 mg/kg, IG measured for 24 hrs. The class given is ADME, organism-based. Set-up: dose 5 mg/kg, time 24 hrs, route ig. To be noted: in vivo, po.
Series [3] in a line: Bioavailability in fasted ICR mouse at 5 mg/kg, IG measured for 24 hrs. The class given is ADME, organism-based. To be noted: in vivo, po.
Series [4] can be described thus: Elimination half life in fasted ICR mouse at 5 mg/kg, IG measured for 24 hrs. The class given is ADME, organism-based. To be noted: in vivo, po, read-out: beta t1/2 (converted).
Series [5] is described as follows: Cmax in fasted Sprague-Dawley rat at 5 mg/kg, IG measured for 24 hrs. Type of series: ADME, organism-based. Set-up: dose 5 mg/kg, time 24 hrs, route ig. Conditions: in vivo, po.
A short description of series [6]: Clearance in fasted ICR mouse at 2 mg/kg, iv measured for 24 hrs. Type of series: ADME, organism-based. To be noted: in vivo.
Series [7] in a line: Cmax in fasted Sprague-Dawley rat at 1 mg/kg, iv measured for 24 hrs. The class given is ADME, organism-based. Also on record: dose 1 mg/kg, time 24 hrs, route iv. Conditions: in vivo.
Series [8] is described as follows: Cmax in fasted ICR mouse at 2 mg/kg, iv measured for 24 hrs. The class given is ADME, organism-based. Set-up: time 24 hrs, dose 2 mg/kg, route iv. To be noted: in vivo.
Series [9] can be described thus: AUC (0 to t) in fasted ICR mouse at 2 mg/kg, iv measured for 24 hrs. Conditions: in vivo. The class given is ADME, organism-based. Set-up: dose 2 mg/kg, time 24 hrs, route iv.
Series [10] is described as follows: Volume of distribution at steady state in fasted ICR mouse at 2 mg/kg, iv measured for 24 hrs. Conditions: in vivo, read-out: Vdss. The class given is ADME, organism-based.
Series [11] in a line: Cmax in fasted ICR mouse at 5 mg/kg, IG measured for 24 hrs. Conditions: in vivo, po. The class given is ADME, organism-based. Set-up: dose 5 mg/kg, time 24 hrs, route ig.
Series [12] has as its target T1, Amine oxidase [flavin-containing] A (Homo sapiens, UniProt P21397).
T1 sequence (P21397 whole entry): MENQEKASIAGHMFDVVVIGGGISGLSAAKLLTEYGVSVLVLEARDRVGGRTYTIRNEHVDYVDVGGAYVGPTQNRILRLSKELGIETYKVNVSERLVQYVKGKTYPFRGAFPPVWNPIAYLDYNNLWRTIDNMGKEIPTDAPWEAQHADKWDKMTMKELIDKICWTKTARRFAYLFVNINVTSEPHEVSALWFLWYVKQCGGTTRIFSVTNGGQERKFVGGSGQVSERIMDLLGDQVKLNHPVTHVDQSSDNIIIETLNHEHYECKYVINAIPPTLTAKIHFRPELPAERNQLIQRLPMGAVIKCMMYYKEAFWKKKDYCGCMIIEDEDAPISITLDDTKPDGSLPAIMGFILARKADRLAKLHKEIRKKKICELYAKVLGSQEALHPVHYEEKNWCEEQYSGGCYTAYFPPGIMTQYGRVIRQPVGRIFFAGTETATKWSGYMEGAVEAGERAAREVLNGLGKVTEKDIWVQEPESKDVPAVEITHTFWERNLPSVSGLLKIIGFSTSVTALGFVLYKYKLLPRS
As to the kind of experiment: Inhibition of recombinant human MAO-A expressed in Sf9 cells using […] as substrate preincubated for 15 mins followed by substrate addition and measured after 60 mins by luciferin based luminescence analysis.

In series [13] the target is T2, Amine oxidase [flavin-containing] B (Homo sapiens, UniProt P27338).
T2 sequence (P27338 whole entry): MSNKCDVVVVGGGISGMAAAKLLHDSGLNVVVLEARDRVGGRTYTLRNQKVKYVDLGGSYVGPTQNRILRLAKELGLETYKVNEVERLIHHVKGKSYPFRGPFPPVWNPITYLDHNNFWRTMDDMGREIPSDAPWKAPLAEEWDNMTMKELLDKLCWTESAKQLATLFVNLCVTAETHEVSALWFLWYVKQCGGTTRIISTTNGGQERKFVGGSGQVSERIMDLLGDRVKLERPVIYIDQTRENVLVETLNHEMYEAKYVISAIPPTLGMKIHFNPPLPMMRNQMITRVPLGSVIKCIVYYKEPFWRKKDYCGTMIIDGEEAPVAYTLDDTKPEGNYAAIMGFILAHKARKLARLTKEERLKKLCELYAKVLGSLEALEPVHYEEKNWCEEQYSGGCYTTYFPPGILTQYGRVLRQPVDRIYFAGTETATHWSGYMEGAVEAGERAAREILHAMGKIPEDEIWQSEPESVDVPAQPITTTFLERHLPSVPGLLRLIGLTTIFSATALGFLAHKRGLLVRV
As to the kind of experiment: Inhibition of recombinant human MAO-B expressed in Sf9 cells using p-tyramine as substrate preincubated for 15 mins followed by substrate addition and measured after 60 mins by luciferin based luminescence analysis.

A short description of series [14]: Clearance in fasted Sprague-Dawley rat at 1 mg/kg, iv measured for 24 hrs. The class given is ADME, organism-based. To be noted: in vivo.
A short description of series [15]: Bioavailability in fasted Sprague-Dawley rat at 5 mg/kg, IG measured for 24 hrs. The class given is ADME, organism-based. Conditions: in vivo, po.
The nature of series [16]: AUC (0 to t) in fasted Sprague-Dawley rat at 5 mg/kg, IG measured for 24 hrs. Set-up: dose 5 mg/kg, time 24 hrs, route ig. Conditions: in vivo, po. Type of series: ADME, organism-based.
The nature of series [17]: Elimination half life in fasted Sprague-Dawley rat at 5 mg/kg, IG measured for 24 hrs. Type of series: ADME, organism-based. To be noted: in vivo, po, read-out: beta t1/2 (converted).
Series [18] is described as follows: Elimination half life in fasted Sprague-Dawley rat at 1 mg/kg, iv measured for 24 hrs. Type of series: ADME, organism-based. Conditions: in vivo, read-out: beta t1/2 (converted).
Series [19] in a line: Volume of distribution at steady state in fasted Sprague-Dawley rat at 1 mg/kg, iv measured for 24 hrs. To be noted: in vivo, read-out: Vdss. The class given is ADME, organism-based.
A short description of series [20]: AUC (0 to t) in fasted Sprague-Dawley rat at 1 mg/kg, iv measured for 24 hrs. Also on record: dose 1 mg/kg, time 24 hrs, route iv. Type of series: ADME, organism-based. To be noted: in vivo.

Where only a bound is given, the exact number is not on record here.

Regarding `NC(=O)[C@@H]1C[C@H](F)CN1Cc1ccc(OCc2cccc(F)c2)cc1`, the results for the half-life in series [1] and in [4] were 33 min and 46.8 min, respectively. For the same molecule, the exposure AUC(0-t) at 24 h in [2] was found to be 1080 ng·h/mL; in [9] it was 561 ng·h/mL. In [3], the bioavailability worked out at 77.4%. The Cmax came out at 690 ng/mL in [5], 69.1 ng/mL in series [7] (24 h), 613 ng/mL in series [8] and 833 ng/mL in [11]. Further, the clearance in series [6] amounted to 63.3 mL/min/kg. Also, the Vd in series [10] came out at 2.6 L/kg.

Turning to `COc1ccccc1-c1cc2cc(CN3CC[C@H]3C(N)=O)ccc2o1`, the IC50 in series [12] was > 10000 nM; in series [13], 1930 nM.

In the case of `C[C@H](NCc1ccc2oc(-c3ccccc3F)cc2c1)C(N)=O`, the IC50 came out at 6200 nM in series [12] and 5010 nM in series [13].

Consider `C[C@H](NCc1ccc2oc(-c3ccc(F)cc3)cc2c1)C(N)=O`, for which the results for the IC50 in series [12] and in series [13] were 3540 nM and 948 nM, respectively.

`COc1cccc(-c2cc3cc(CN4CC[C@H]4C(N)=O)ccc3o2)c1`: the IC50 is > 10000 nM in series [12] and 103 nM in [13].

As to `NC(=O)[C@@H]1CC(F)(F)CN1Cc1ccc2oc(-c3ccc(F)cc3)cc2c1`, the IC50 is > 10000 nM in series [12] and 833 nM in [13].

Molecule `NC(=O)[C@@H]1C[C@H](F)CN1Cc1ccc2oc(-c3cccc(F)c3)cc2c1` gave a clearance in [14] of 66.4 mL/min/kg. Moreover, the half-inhibitory concentration (IC50) was 4890 nM in series [12] and 55 nM in [13]. Also, the bioavailability in [15] was 126%. For the same molecule, the maximum concentration (Cmax) turned out to be 409 ng/mL in series [5] and 237 ng/mL in [7] (Sprague-Dawley, read-out: Cmax). The AUC(0-t) at 24 h in series [16] was determined as 1500 ng·h/mL; in [20], 250 ng·h/mL. The values for the half-life in [17] and in series [18] were 133 min and 41.2 min, respectively. Also, in series [19], the Vd amounted to 4.12 L/kg.

`NC(=O)[C@@H]1CCN1Cc1ccc2oc(-c3ccccc3F)cc2c1`: the clearance in series [14] stood at 106 mL/min/kg. Also, the IC50 in [12] is > 10000 nM; in series [13] it was 73 nM. Also, in series [15], the bioavailability came to 86.7%. Also, the Cmax was 167 ng/mL in [5] and 360 ng/mL in series [7] (Sprague-Dawley, read-out: Cmax). Further, the AUC(0-t) at 24 h in [16] came out at 672 ng·h/mL; in series [20] it was 155 ng·h/mL. Besides, the half-life in series [17] was 69 min; in series [18], 22.4 min. For the same molecule, the Vd in series [19] is 2.39 L/kg.
